Assay results as given in PubChem BioAssay AID179 (DTP/NCI, 2004).
pEC50, pIC50: −log10 of the molar value. Activity calls are given as the source filed them.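 Rule for the calls: active = compounds giving half or more protection of infected cells from virus-caused growth loss, again on retest; inactive = the rest.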 Where a SMILES comes first, the peptide text is derived from it. [ ]: non-standard residue; d: D form. The star is where a group is joined. ξ: configuration not given here. X17 = O=C(OCc1ccccc1)[C@@H]1CCC[C@H]1N*; Fmoc = O=C(OCC1c2ccccc2-c2ccccc21)*; ξW = NC(Cc1c[nH]c2ccccc12)C(=O)O; ξF = NC(Cc1ccccc1)C(=O)O; Boc = CC(C)(C)OC(=O)*; ξK = NCCCCC(N)C(=O)O; ξT = CC(O)C(N)C(=O)O; tBu = CC(C)(C)*

Test system: CEM cells HIV-1 protection, formazan growth assay
Experiment: NCI AIDS Antiviral Assay
Conditions: for pIC50: measured here: growth of uninfected CEM cells
In short: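 Human CEM cells, uninfected and HIV-1-infected, received five drug concentrations, and growth was read by soluble formazan assay. Compounds giving at least 50% protection were retested; reproducible 100% protection defined confirmed active.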

SMILES | pEC50 | pIC50 | outcome
CC(=O)C1C(=O)C(=O)N(c2cccc([N+](=O)[O-])c2)C1=O (configuration not stated) | < 3.70 | < 3.70 | 
CCOC(=O)c1c(SC(=O)/C=C/c2ccccc2)n(-c2ccccc2)c(=S)n(-c2ccccc2)c1=O | < 3.70 | 4.10 | 
c1ccc(-c2cc3ccc4cccnc4c3o2)cc1 | < 3.97 | 4.25 | 
CN(CCc1ccccn1)C(=S)N/N=C(\c1ccccc1)c1ccccn1 | < 6.70 | 7.88 | 
O=NN1CN2CN(C1)CN(N=O)C2 | < 3.70 | 4.51 | 
CCOC(=O)c1cnc2n(c1=O)[C@H]1CCCC[C@@H]1N2 | < 3.70 | < 3.70 | 
C=C=C(C)C(=O)N(C(C)C)C(C)C | < 3.70 | < 3.70 | 
O=c1[nH]c(=O)n(C2OC(CO)C(O)C2O)c2ccsc12 (configuration not stated) | < 3.70 | < 3.70 | 
CSc1cc(=O)[nH]c(=O)[nH]1 | < 3.70 | < 3.70 | 
CC(=O)NC(CCC(=O)c1ccc(C)cc1)(C(=O)O)C(=O)O | < 3.70 | < 3.70 | 
COc1ccc(C2C(Cl)C(=O)N2n2cnc3ccccc3c2=O)cc1 (configuration not stated) | < 5.42 | < 5.42 | 
Cc1cn(C2OC(COC(=O)c3ccccc3)C(OC(=O)c3ccccc3)C2I)c(=O)[nH]c1=O (configuration not stated) | < 3.70 | 4.43 | 
CC(OC(C)(C)C)C(NC(=O)C(CCCCNC(=O)OC(C)(C)C)NC(=O)C(Cc1c[nH]c2ccccc12)NC(=O)C(Cc1ccccc1)NC(=O)OCC1c2ccccc2-c2ccccc21)C(=O)NC(Cc1ccccc1)C(=O)N[C@@H]1CCC[C@H]1C(=O)OCc1ccccc1 (some centres not stated) (Fmoc-[ξF][ξW][ξK](Boc)[ξT](tBu)[ξF]-X17) |  |  | inactive
COc1cc2c(oc(=O)c3c4occc4cc(OC)c23)c2cccc(OCc3ccccc3)c12 | < 5.94 | < 5.94 | 
C[C@@H]1O[C@@H](O[C@H]2CC[C@]3(C=O)[C@H]4CC[C@]5(C)[C@@H](c6ccc(=O)oc6)CC[C@]5(O)[C@@H]4CC[C@]3(O)C2)[C@H](O)[C@H](O)[C@H]1O[C@@H]1O[C@H](CO)[C@@H](O)[C@H](O)[C@H]1O | < 6.70 | 8.42 | 
O=c1[nH]cnc2c1sc1nc3ccccc3n12 | < 3.70 | 3.85 | 
COC(=O)CC1c2ccccc2N2C(=O)Cc3c([nH]c4ccccc34)C12 (configuration not stated) | < 3.70 | 3.72 | 
COc1ccc(/C=N/NC(=O)c2cnc3[nH]c(=O)n(C)c(=O)c3c2)cc1 | < 3.70 | < 3.70 | 
COc1cc(C=O)c(-c2cc(OC)c(OC)cc2C=O)cc1OC | < 4.35 | < 4.35 | 
COc1cc(/C=C2\Sc3scc(-c4cccc([N+](=O)[O-])c4)[n+]3C2=O)cc(OC)c1OC | < 3.70 | 5.01 | 
N#CC(C(N)=O)C(CC(=O)c1ccccc1)c1ccccc1 (configuration not stated) | < 3.70 | 3.84 | 
OCC1OC(NC(=S)NCCC(F)(F)C(F)(F)C(F)(F)C(F)(F)C(F)(F)C(F)(F)F)C(O)C(O)C1O (configuration not stated) | < 3.70 | 3.92 | 

SMILES | pEC50 | pIC50 | outcome
Cc1ccc(S(=O)(=O)N2CC(O)C=Cc3ccccc32)cc1 (configuration not stated) | < 3.70 | 5.50 | 
CC(C)CC(N)C(=O)NC(CC(=O)O)C(=O)NC(CCCCN)C(=O)NC(C)C(=O)NC(CO)C(=O)NC(Cc1ccc(O)cc1)C(=O)NC(CO)C(=O)NC(C(=O)NC(CC(N)=O)C(=O)NC(Cc1cnc[nH]1)C(=O)NC(CC(C)C)C(N)=O)C(C)O (configuration not stated) (H-LDKASYSTNHL-NH2; configuration not given here) | < 4.30 | < 4.30 | 
Cc1cc(Cl)nc(Nc2nc3ccccc3[nH]2)n1 | < 3.70 | < 3.70 | 
O=C(NCCCCCCCN1CCCCCC1)C1c2ccccc2-c2ccccc21 | < 3.70 | 4.40 | 
CC1=C(c2nc3ccccc3s2)C(=O)OC1(C)C | < 3.74 | 3.91 | 
CC12CC(OC(=O)[C@]1(C)O)[C@@H]([C@]1(O)CC[C@H]3[C@@H]4C[C@H]5O[C@]56[C@@H](O)C=CC(=O)[C@]6(C)[C@H]4CC[C@@]31C)C2 (some centres not stated) | < 5.41 | 6.84 | 
Cc1cc(NS(=O)(=O)c2ccc(N)cc2)sn1 | < 3.70 | < 3.70 | 
CCCCCCCn1ccnc1NCCCCCCCCCCNc1nccn1CCCCCCC | < 4.43 | 5.00 | 
O=C1NC(=O)C2(c3ccccc3)CCN1C2=O (configuration not stated) | < 3.70 | < 3.70 | 
C/C(=N\NC(=O)c1ccncc1)c1cccc(C(F)(F)F)c1 | < 4.07 | < 4.07 | 
O=C(Nc1cccc(O)c1)C(=O)C(C(=O)c1ccccc1F)C1OC(=O)c2ccccc21 (configuration not stated) | < 3.52 | 4.62 | 
C(/C=C/Nc1ccc(-c2ccccc2)cc1)=Nc1ccc(-c2ccccc2)cc1 | < 3.70 | < 3.70 | 
COc1cc2c(c3[nH]cc(C(=O)O)c(=O)c13)NC(=O)CS2 | < 3.70 | < 3.70 | 
OC(c1nc2ccccc2s1)(C(F)(F)F)C(F)(F)F |  |  | inactive
CCCCCCCC(=O)c1ccc(O)c(C(=O)Nc2cccc(C(F)(F)F)c2)c1 | < 4.89 | 6.84 | 
CC(O)(/C=C/c1ccccc1)P(=O)(O)c1ccccc1 (configuration not stated) | < 3.70 | < 3.70 | 
Cc1ccc2c(c1)-c1nc(N)c(C#N)c(-c3ccc(Cl)cc3)c1CCS2(=O)=O | < 3.70 | 4.53 | 
CCOC(=O)C(=Cc1cccnc1C)C(=O)OCC | < 3.16 | 5.08 | 
C[N+](C)(C)CC(CC(=O)[O-])C1CC1 (configuration not stated) | < 2.87 | < 2.87 | 
C(=C\N1CCCCC1)/c1nnnn1-c1ccccc1 | < 3.70 | 4.62 | 
O=[N+]([O-])c1ccc(C2=Nn3c(nnc3-c3ccccc3)SC2)o1 |  |  | inactive
N#C/C=C\c1ccc(C#N)cc1 | < 4.19 | < 4.19 | 

SMILES | pEC50 | pIC50 | outcome
COc1ccc(C2OCC3OC(n4cc(C)c(=O)[nH]c4=O)CC3N2O)cc1 (configuration not stated) | < 3.70 | < 3.70 | 
CCOC(=S)SSC(=S)OCC | < 3.70 | 3.97 | 
CSc1nnc2sc3cc(C)ccc3n12 | < 3.70 | 3.91 | 
CCOC(=O)C(Cl)(NC(=O)NC(Cl)(C(=O)OCC)C(F)(F)F)C(F)(F)F (configuration not stated) | < 3.70 | < 3.70 | 
CCCCCCCCCCCc1c(O)c(O)cc2nc3ccc(SCCC)cc3nc12 | < 4.79 | 5.03 | 
CCOC(=O)/C=C/c1nc(C#N)c(N)o1 | < 3.70 | 3.99 | 
CCCSCC(P(=O)(O)O)P(=O)(O)O |  |  | inactive
O=CC12CCCN1CCC2 | < 3.70 | < 3.70 | 
O=c1sc2c(s1)SSSSS2 | < 4.30 | 4.80 | 
CS(=O)(=O)Nc1ccc2c(c1)N(S(C)(=O)=O)CC2COS(C)(=O)=O (configuration not stated) | < 3.70 | 4.39 | 
O=c1nc(NC(c2ccccc2)(c2ccccc2)c2ccccc2)ccn1CCO |  |  | inactive
CCOC(=O)/C(=C/c1cccc(C#N)c1)N(CC)CC | < 3.18 | 3.46 | 
CN(C)CCN(C)P12(Oc3ccccc3O1)Oc1c(Cl)c(Cl)c(Cl)c(Cl)c1O2 | < 4.36 | 4.61 | 
C=CCCC1CCCCNC1=S (configuration not stated) | < 3.70 | < 3.70 | 
NC(N)=NS(=O)(=O)c1ccc(NC(=O)c2cccc3c(Nc4ccc(S(=O)(=O)N=C(N)N)cc4)c4ccc(Cl)cc4nc23)cc1 | < 4.27 | < 4.27 | 
Cc1cc(N(CCC#N)CCC#N)ccc1N=Nc1ccc([N+](=O)[O-])cc1 | < 4.84 | < 4.84 | 
COc1cc(OC)c2nccc(NCCCN(C)C)c2c1[N+](=O)[O-] | < 3.70 | 4.03 | 
O=c1n(-c2ccccc2)c(=O)n2n1C1/C=C\C=C/C2C2CCC21 (configuration not stated) | < 3.70 | < 3.70 | 
O/N=C1\CCCC\C1=C/c1ccccc1 |  |  | inactive
O=C1c2ccccc2C(=O)c2cc(N=Nc3c(O)ccc4ccccc34)ccc21 | < 4.00 | < 4.00 | 
Cc1ccc2nc(-c3ccc(N=Nc4cc(S(=O)(=O)O)c5ccccc5c4O)cc3)sc2c1S(=O)(=O)O | < 4.30 | < 4.30 | 
O=C(NCCO)c1c(CO)n([O-])c2ccccc2[n+]1=O | < 3.19 | 3.67 | 

SMILES | pEC50 | pIC50 | outcome
CC1CCC2CC(=O)OC([C@@H]3C(=O)O[C@@H](C4=CCCC4)C4C(C)CCC43)C12 (some centres not stated) | < 5.00 | < 5.00 | 
Cc1ccc(/C=C/c2nnc(N/N=C/c3ccc4c(c3)OCO4)[nH]c2=O)cc1 | < 3.70 | 4.02 | 
O=C1CSC(c2ccccc2[N+](=O)[O-])N1c1ccc(-n2c(-c3ccccc3)nc3ccccc3c2=O)cc1 (configuration not stated) | < 3.70 | 3.90 | 
C[N+](C)(C)C=NCCCCCCN=C[N+](C)(C)C | < 3.70 | < 3.70 | 
Cc1[nH]c2ccccc2c1C(=O)CC1(O)C(=O)Nc2ccccc21 (configuration not stated) |  |  | inactive
CN(C)CC/C=C1\c2ccccc2CN(C)c2ccccc21 | < 3.70 | 4.48 | 
Fc1ccc(CSc2cnnc(SCc3ccc(F)cc3)c2SCc2ccc(F)cc2)cc1 | < 3.70 | 4.40 | 
COc1ccc2c(c1)OCC1Cc3cccc(OC)c3OC21 (configuration not stated) | < 3.70 | 4.35 | 
O=C1c2ccccc2C(=O)N1CCc1c[nH]c2ccccc12 | < 3.70 | < 3.70 | 
CCC12OCC(C)(C)N1OC(=O)N2c1ccccc1 (configuration not stated) | < 3.70 | < 3.70 | 
COc1cc(C)c(Br)c2c1C(=O)C(Br)(Br)CC2 | < 3.70 | 6.51 | 
CCOC(=O)c1[nH]cc(C)c1-c1ccn(-c2ccccc2)c1 | < 3.70 | 4.34 | 
Cc1cn([C@H]2C[C@@H]3[C@@H](COC(CC[Se]C#N)N3O)O2)c(=O)[nH]c1=O (some centres not stated) | 5.40 | 4.54 | 
CCCCc1c2c(nc3c1CCCC3=O)CCCC2 | < 3.71 | 4.54 | 
O=NNc1ccc(S(=O)c2ccccc2)cn1 (configuration not stated) | < 3.70 | < 3.70 | 
CCCCCCCCCCCCCCCC(=O)OCC(C[As](=O)(O)O)OC(=O)CCCCCCCCCCCCCCC (configuration not stated) | < 4.42 | < 4.42 | 
CC(C(=O)N1C(=O)N(C(=O)[C@H](C)C(O)c2ccccc2)[C@H](c2ccccc2)[C@H]1c1ccccc1)[C@@H](O)c1ccccc1 (some centres not stated) | < 3.70 | 4.55 | 
COc1ccc(OC(C)=O)c2c1CCC=CC2=O |  |  | inactive
COc1ccc(C2=C(Cl)c3cc(OC)c(OC)cc3C2OC)cc1OC (configuration not stated) | < 4.58 | < 4.58 | 
